Assay results published in patent US5149859A, “Naphthalene derivatives” (Teijin Limited, priority 1989, dated 1992).
Read-outs that look alike come from different tables or passages of the source. One block for each compound: values may come before it.

Tests used:
Type in all cases: cell-based
lipoxygenase [1] = molecular target: T1, lipoxygenase (Homo sapiens, UniProt P09917); test: Activity of inhibiting lipoxygenase production in human whole blood (Table 3-1); settings: 0.25 h, final 10^-5 M, A23187 25 μM, 37° C.
T1 construct: heparin-treated vein blood of a healthy person without administration of a drug; from tissue; host or cells: human heparinised venous whole blood
T1 sequence (P09917 1-674): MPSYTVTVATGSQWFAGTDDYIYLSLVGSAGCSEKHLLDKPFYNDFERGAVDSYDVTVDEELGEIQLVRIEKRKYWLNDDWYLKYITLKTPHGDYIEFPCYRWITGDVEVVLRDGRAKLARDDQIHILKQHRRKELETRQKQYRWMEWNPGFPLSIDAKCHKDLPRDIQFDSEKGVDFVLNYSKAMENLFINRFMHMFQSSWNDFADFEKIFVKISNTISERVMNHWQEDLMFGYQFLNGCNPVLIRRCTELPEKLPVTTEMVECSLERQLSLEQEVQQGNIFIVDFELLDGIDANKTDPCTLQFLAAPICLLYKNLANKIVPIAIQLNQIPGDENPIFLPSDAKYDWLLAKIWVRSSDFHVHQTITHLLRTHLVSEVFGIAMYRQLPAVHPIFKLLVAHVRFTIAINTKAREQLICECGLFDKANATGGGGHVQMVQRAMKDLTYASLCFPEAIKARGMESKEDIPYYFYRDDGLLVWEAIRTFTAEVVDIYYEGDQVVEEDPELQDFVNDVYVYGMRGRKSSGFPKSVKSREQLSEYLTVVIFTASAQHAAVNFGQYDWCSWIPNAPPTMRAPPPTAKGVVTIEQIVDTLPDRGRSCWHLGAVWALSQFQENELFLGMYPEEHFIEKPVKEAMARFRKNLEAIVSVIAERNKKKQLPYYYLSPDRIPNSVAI
Protocol: Evaluation of activity of inhibiting lipoxygenase production in human whole blood
Into 1 ml of a heparin-treated vein blood of a healthy person without administration of a drug was added 1 μl of the DMSO solution of each compound listed in Table 3-1 (final 10^-5 M). After treatment at 37° C. for 5 minutes, 5 μl of a DMSO solution of calcium ionophone (A23187, 25 μM) was added to carry out the treatment at 37° C. for 15 minutes, followed by ice-cooling. As the internal standard substance for quantitation, 10 μl of a DMSO solution of 100 ng of 15-HETE was added, then 0.8 ml of acetonitrile was added, and the precipitates formed were removed by centrifugation. LTB4, 5-HETE in the supernatant were separated and quantitated, and the results are shown as the production inhibitory ratio of LTB4, etc. in Table 3-1.

lipoxygenase [2] = test: Activity of inhibiting lipoxygenase production in human whole blood (Table 2-1); settings: final 10^-4 M, 37° C., 15 min, 100 µM; for Inhibitory ratio (%) 12-HETE: A23187 25 μM; for Inhibitory ratio (%) 5-HETE / Inhibitory ratio (%) LTB4: A23187 25 μm
Protocol: Evaluation of activity of inhibiting lipoxycenase production in human whole blood Into 2 ml of a heparin-treated vein blood of a healthy person without administration of a drug was added 2 μl of the DMSO solution of each compound listed in Table 2-1 (final 10^-4 M). After treatment at 37° C. for 5 minutes, 10 μl of a DMSO solution of A23187 was added (final 25 μm) to carry out the treatment at 37° C. for 15 minutes, followed by ice-cooling. As the internal standard substance for quantitation, 10 μl of a DMSO solution of 100 ng of 15-HETE was added, and then 0.8 ml of acetonitrile was added and the precipitates formed were removed by centrifugation. LTB4, 5-HETE, 12-HETE in the supernatant were separated and quantitated. The results are shown in Table 2-1 as a production inhibitory ratio of LTB4.

lipoxygenase [3] = test: Activity of inhibiting lipoxygenase production in human whole blood (Table 1-1); settings: A23187 25 μM, 15 min
Protocol: Evaluation of activity of inhibiting lipoxygenase production in human whole blood Into 2 ml of a heparin-treated vein blood of a healthy person without administration of a drug was added 2 μl of the DMSO solution containing the test sample of the sulfide ketone derivative listed in Table 1-1 as the drug to be tested (final 10^-5 M). After treatment at 37° C. for 5 minutes, 10 μl of a DMSO solution of A23187 was added (final 25 μM) to carry out the treatment at 37° C. for 15 minutes, followed by ice-cooling. As the internal standard substance for quantitation, 10 μl of a DMSO solution of 100 ng of 15-HETE was added, and then 0.8 ml of acetonitrile was added and the precipitates formed were removed by centrifugation. LTB4, 5-HETE, 12-HETE in the supernatant were separated and quantitated. The results are shown in Table 1-1 as the lipoxygenase production inhibitory ratio. | *For only this compound, the results are shown in "× 10^-4

lipoxygenase [4] = molecular target: T2, lipoxygenase (Rattus norvegicus, UniProt P12527); test: Activity of inhibiting lipoxygenase production in basophilic leukemia (RBL-1) cells (Table 3-2); settings: 0.25 h, arachidonic acid 50 μg, A23187 25 μM, read-out: Inhibitory ratio (%) LTB4; for inhibition at 1 µM: 10^-6 M; for inhibition at 0.1 µM: 10^-7 M
T2 construct: A 5×10^6 amount cells of RBL-1 were used; endogenous in cells; host or cells: RBL-1 (basophilic leukemia cells)
T2 sequence (P12527 1-673): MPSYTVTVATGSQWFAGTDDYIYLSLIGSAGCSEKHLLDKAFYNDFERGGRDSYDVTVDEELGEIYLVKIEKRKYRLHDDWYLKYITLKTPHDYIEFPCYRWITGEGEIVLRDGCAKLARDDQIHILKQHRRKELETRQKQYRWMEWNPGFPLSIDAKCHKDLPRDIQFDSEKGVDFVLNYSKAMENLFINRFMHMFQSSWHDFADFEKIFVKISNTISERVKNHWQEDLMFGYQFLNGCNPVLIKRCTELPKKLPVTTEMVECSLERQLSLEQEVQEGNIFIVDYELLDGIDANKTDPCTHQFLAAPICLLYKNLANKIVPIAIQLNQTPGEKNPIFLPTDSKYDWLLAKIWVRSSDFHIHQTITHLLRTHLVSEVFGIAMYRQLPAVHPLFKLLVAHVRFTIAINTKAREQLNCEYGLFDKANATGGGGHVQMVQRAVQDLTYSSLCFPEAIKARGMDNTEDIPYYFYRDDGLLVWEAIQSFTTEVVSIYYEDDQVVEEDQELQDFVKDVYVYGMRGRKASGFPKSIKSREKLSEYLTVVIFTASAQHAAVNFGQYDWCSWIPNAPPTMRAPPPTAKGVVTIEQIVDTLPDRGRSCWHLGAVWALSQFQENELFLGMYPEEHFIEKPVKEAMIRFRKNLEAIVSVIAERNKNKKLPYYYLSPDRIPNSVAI
Protocol: Evaluation of activity of inhibiting lipoxygenase production […] (RBL-1) cells
A 5×10^6 amount cells of RBL-1 were used and the DMSO solution of each compound listed in Table 3-2 was added thereto so that the final concentration was obtained. After incubation at 37° C. for 5 minutes, 50 μg of arachidonic acid and 25 μM of calcium ionophore (A23187) were added thereto, followed by incubating at 37° C. for 15 minutes. The extraction was carried out after the reaction was completed. The product was determined by reversed phase HPLC.

[5] = read-out: Inhibitory ratio (%) 5-HETE
[6] = read-out: Inhibitory ratio (%) LTB4
[7] = footnote: results shown in × 10^-4 (only this compound)

Compound: COC(=O)CCCC(=O)C(=O)c1ccc2cc(O)ccc2c1 [Example 2-4, methyl 6-(6-hyerocy-2-naphthyl)-5,6-dioxohexanoate]
Inhibitory ratio (%) 12-HETE (lipoxygenase [2]): 3% | Inhibitory ratio (%) 5-HETE (lipoxygenase [2]): 81% | Inhibitory ratio (%) LTB4 (lipoxygenase [2]): 78%

Compound: COC(=O)CCCC(=NO)C(=O)c1ccc2cc(O)ccc2c1 [Example 2-9, methyl 6-(6-hydroxy-2-naphthyl)-5-hydroxvimino-6-oxohexanoate]
Inhibitory ratio (%) 12-HETE (lipoxygenase [2]): 27% | Inhibitory ratio (%) 5-HETE (lipoxygenase [2]): 77% | Inhibitory ratio (%) LTB4 (lipoxygenase [2]): 66%

Compound: CON=C(CSc1ccc2cc(OC)ccc2c1)CC(=O)OC [Example 1-6, methyl 4-(6-methoxy-2-naphthylthio)-3-methoxyiminobutanoate]
Inhibitory ratio (%) 5-HETE (lipoxygenase [3]; final 10^-5 M, 37° C., 10 µM): 29% | Inhibitory ratio (%) LTB4 (lipoxygenase [3]; final 10^-5 M, 37° C., 10 µM): 37%

Compound: COC(=O)CCCC(=NO)C(=NO)c1ccc2cc(O)ccc2c1 [Example 2-5, methyl 6-(6-hydroxy-2-naphthyl)-5,6-dihydroxyiminohexanoate]
Inhibitory ratio (%) 12-HETE (lipoxygenase [2]): 4% | Inhibitory ratio (%) 5-HETE (lipoxygenase [2]): 78% | Inhibitory ratio (%) LTB4 (lipoxygenase [2]): 93%

Compound: COC(=O)CCC(CSc1ccc2cc(O)ccc2c1)=NO [Example 1-11, methyl 5-(6-hydroxy-2-naphthylthio)-4-hydroxyiminopentanoate]
Inhibitory ratio (%) 5-HETE (lipoxygenase [3]; final 10^-5 M, 37° C., 10 µM): 56% | Inhibitory ratio (%) 12-HETE (lipoxygenase [3]; final 10^-5 M, 37° C., 10 µM): 28% | Inhibitory ratio (%) LTB4 (lipoxygenase [3]; final 10^-5 M, 37° C., 10 µM): 64%

Compound: COC(=O)CCCC(Sc1ccc2cc(OC)ccc2c1)C(C)=NO (stereo not drawn) [Example 1-4]
Inhibitory ratio (%) 5-HETE (lipoxygenase [3]; [7]): 43% | Inhibitory ratio (%) 12-HETE (lipoxygenase [3]; [7]): 29%

Compound: O=C(O)CCCC(=O)CSc1ccc2cc(O)ccc2c1 [Example 1-14, 6-(6-hydroxy-2-naphthylthio)-5-oxohexanoic acid]
Inhibitory ratio (%) 5-HETE (lipoxygenase [3]; final 10^-5 M, 37° C., 10 µM): 49% | Inhibitory ratio (%) 12-HETE (lipoxygenase [3]; final 10^-5 M, 37° C., 10 µM): 20% | Inhibitory ratio (%) LTB4 (lipoxygenase [3]; final 10^-5 M, 37° C., 10 µM): 37%

Compound: COC(=O)CCCC(=O)CSc1ccc2cc(O)ccc2c1 [Example 1-12, methyl 6-(6-hydroxy-2-naphthylthio)-5-oxohexanoate]
Inhibitory ratio (%) 5-HETE (lipoxygenase [3]; final 10^-5 M, 37° C., 10 µM): 6% | Inhibitory ratio (%) 12-HETE (lipoxygenase [3]; final 10^-5 M, 37° C., 10 µM): 17% | Inhibitory ratio (%) LTB4 (lipoxygenase [3]; final 10^-5 M, 37° C., 10 µM): 2% | inhibition at 1 µM (lipoxygenase [4]): 53% | inhibition at 0.1 µM (lipoxygenase [4]): 27% | inhibition at 0.01 µM (lipoxygenase [4]; 10^-8 M): 28%

Further lines, results first:

inhibition at 10 µM (lipoxygenase [1]; [5]): 45% | inhibition at 10 µM (lipoxygenase [1]; [6]): 63%
Compound: COC(=O)c1cccc(C(=O)N(O)c2ccc3ccccc3c2O)c1 [Example 3-10, N-hydroxy-N-(1-hydroxy-2-naphthyl)-3-methoxycarbonylbenzamide]

inhibition at 10 µM (lipoxygenase [1]; [5]): 59% | inhibition at 10 µM (lipoxygenase [1]; [6]): 60%
Compound: COC(=O)CCCC(=O)N(O)Cc1ccc2ccccc2c1 [Example 3-8, N-hydroxy-N-(2-naphthylmethyl)-4methoxycarbonylbutanamide]

inhibition at 10 µM (lipoxygenase [1]; [5]): 38% | inhibition at 10 µM (lipoxygenase [1]; [6]): 45%
Compound: COC(=O)CCCCC(=O)N(O)c1ccc2ccccc2c1O [Example 3-4, N-hydroxy-N-(1-hydroxy-2-naphthyl)-5-methoxycarbonylpentanamide]

inhibition at 10 µM (lipoxygenase [1]; [5]): 27% | inhibition at 10 µM (lipoxygenase [1]; [6]): 40%
Compound: COC(=O)CCCC(=O)N(O)Cc1ccc2ccccc2c1OC [Example 3-9, N-hydroxy-N-(1-methoxy-2-naphthylmethyl)-4-methoxycarbonylbutanamide]

inhibition at 10 µM (lipoxygenase [1]; [5]): 80%
Compound: COC(=O)CCCC(=O)N(O)c1ccc2ccccc2c1O [Example 3-2, N-hydroxy-N-(1-hydroxy-2-naphthyl)-4-methoxycarbonylbutanamide]

inhibition at 10 µM (lipoxygenase [1]; [5]): 18% | inhibition at 10 µM (lipoxygenase [1]; [6]): 24%
Compound: COC(=O)COCC(=O)N(O)c1ccc2ccccc2c1O [Example 3-6, N-hydroxy-N-(1-hydroxy-2-naphthyl)-4-methoxycarbonyl-3-oxabutanamide]

inhibition at 10 µM (lipoxygenase [1]; [5]): 40% | inhibition at 10 µM (lipoxygenase [1]; [6]): 39%
Compound: COC(=O)CCCCCC(=O)N(O)c1ccc2ccccc2c1O [Example 3-5, N-hydroxy-N-(1-hydroxy-2-naphthyl)-6-methoxycarbonylhexanamide]

inhibition at 10 µM (lipoxygenase [1]; [5]): 59% | inhibition at 10 µM (lipoxygenase [1]; [6]): 71%
Compound: COC(=O)CCC(=O)N(O)Cc1ccc2ccccc2c1 [Example 3-7, N-hydroxy-N-(2-naphthylmethyl)-3-methoxycarbonylpropionamide]

inhibition at 1 µM (lipoxygenase [4]): 35% | inhibition at 0.1 µM (lipoxygenase [4]): 20%
Compound: O=C(O)CCCC(=O)N(O)c1ccc2ccccc2c1O [Example 3-3, N-hydroxy-N-(1-hydroxy-2-naphthyl)-4-carboxybutanamide]
